Assay results: US20230339890A1, “AMINO ALCOHOL COMPOUNDS AND USES THEREOF” (Kineta, Inc., priority 2020, published 2023)

Target: Recombinant human CYP51A1 (lanosterol-14a-demethylase) (Homo sapiens (Human), UniProt Q16850)
Experiment: Inhibition of CYP51A1, fluorescent substrate BOMCC
Assay type: biochemical
Conditions: recombinant human CYP51A1 coexpressed with CYP reductase in bacterial membranes, 8-point concentration-response, read-out: CYP51 IC50
Text: Method: Recombinant human CYP51A1 (lanosterol-14a-demethylase) enzyme was coexpressed with CYP reductase in bacterial membranes and the fluorescent substrate BOMCC (a nonnatural substrate that causes increases in fluorescence upon CYP51A1-dependent demethylation) was used to obtain 8-point dose concentration-response curves for each compound.

Chain of Recombinant human CYP51A1 (lanosterol-14a-demethylase) (Q16850 whole entry): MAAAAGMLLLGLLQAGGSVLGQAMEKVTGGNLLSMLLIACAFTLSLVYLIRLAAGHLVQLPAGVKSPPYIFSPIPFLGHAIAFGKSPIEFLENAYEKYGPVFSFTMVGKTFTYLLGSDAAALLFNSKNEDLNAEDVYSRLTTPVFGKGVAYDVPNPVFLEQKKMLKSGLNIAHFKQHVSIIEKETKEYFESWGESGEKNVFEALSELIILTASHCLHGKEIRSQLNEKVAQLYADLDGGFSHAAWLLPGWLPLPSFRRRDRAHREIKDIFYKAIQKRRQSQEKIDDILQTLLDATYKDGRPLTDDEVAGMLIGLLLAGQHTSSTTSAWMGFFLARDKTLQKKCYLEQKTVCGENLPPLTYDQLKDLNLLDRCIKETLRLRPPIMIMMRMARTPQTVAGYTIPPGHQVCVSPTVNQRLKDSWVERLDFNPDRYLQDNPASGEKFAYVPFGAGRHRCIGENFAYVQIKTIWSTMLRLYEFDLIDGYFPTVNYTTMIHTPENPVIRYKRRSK

Compared with `O=C(Cc1ccc(C(F)(F)F)nc1)N(CC1CCOCC1)C[C@@H](O)c1cccnc1` [compound 79, N-[(2S)-2-hydroxy-2-(3-pyridyl)ethyl]-N-(tetrahydropyran-4-ylmethyl)-2-[6-(trifluoromethyl)-3-pyridyl]acetamide], `CC(C)(C)OC(=O)NC1CCC(CN(C[C@@H](O)c2cccnc2)C(=O)Cc2ccc(C(F)(F)F)nc2)CC1` (stereo partly drawn) [compound 146, tert-butyl N-[4-[[[(2S)-2-hydroxy-2-(3-pyridyl)ethyl]-[2-[6-(trifluoromethyl)-3-pyridyl]acetyl]amino]methyl]cyclohexyl] carbamate] is lower in IC50: greater than 1000 nM for the first, no more than 100 nM for the second. The second is the more potent here.

`O=C(Cc1ccc(C(F)(F)F)nc1)N(CC(O)c1cccnn1)C1CCC1` (centres unmarked) [compound 60, N-cyclobutyl-N-(2-hydroxy-2-pyridazin-3-yl-ethyl)-2-[6-(trifluoromethyl)-3-pyridyl]acetamide] and `O=C(Cc1ccc(C(F)(F)F)nc1)N(CC1CCC1)CC(O)c1cccnn1` (centres unmarked) [compound 87] fall in the same range of IC50: 100 to 1000 nM for the first, 100 to 1000 nM for the second.

`N#Cc1ccc(CC(=O)N(C[C@@H](O)c2cccnc2)C2CCC2)cc1Cl` [compound 77, 2-(3-chloro-4-cyano-phenyl)-N-cyclobutyl-N-[(2S)-2-hydroxy-2-(3-pyridyl)ethyl]acetamide] and `CCCN(C[C@@H](O)c1cccnc1)C(=O)Cc1ccc(C#N)c(F)c1` [compound 119, 2-(4-cyano-3-fluoro-phenyl)-N-[(2S)-2-hydroxy-2-(3-pyridyl)ethyl]-N-propyl-acetamide] cannot be ordered by IC50: no more than 100 nM for the first, no more than 100 nM for the second.

`CCCN(C[C@@H](O)c1cccnc1)C(=O)Cc1cncc(Cl)c1` [compound 44, 2-(5-chloro-3-pyridyl)-N-[(2S)-2-hydroxy-2-(3-pyridyl)ethyl]-N-propyl-acetamide] and `CCCN(CC(O)c1cccnc1)C(=O)Cc1cccnc1` (centres unmarked) [compound 123, N-[2-hydroxy-2-(3-pyridyl)ethyl]-N-propyl-2-(3-pyridyl)acetamide] cannot be ordered by IC50: greater than 1000 nM for the first, greater than 1000 nM for the second.

`CCC(=O)N(CC1Cc2cc(Cl)c(Cl)cc2C1)C[C@@H](O)c1cccnc1` [compound 34, N-[(5,6-dichloroindan-2-yl)methyl]-N-[(2S)-2-hydroxy-2-(3-pyridyl)ethyl]propanamide] and `CCCN(C[C@@H](O)c1cccnc1)C(=O)C1Cc2cc(F)c(F)cc2C1` [compound 110, 5,6-difluoro-N-[(2S)-2-hydroxy-2-(3-pyridyl)ethyl]-N-propyl-indane-2-carboxamide] fall in the same range of IC50: 100 to 1000 nM for the first, 100 to 1000 nM for the second.

Compared with `CCC(=O)N(C[C@@H](O)c1cccnc1)C1Cc2cnc(C(F)(F)F)cc2C1` (stereo partly drawn) [compound 93, N-[(2S)-2-hydroxy-2-(3-pyridyl)ethyl]-N-[3-(trifluoromethyl)-6,7-dihydro-5H-cyclopenta[c]pyridin-6-yl]propanamide], `CCCN(C[C@@H](O)c1cccnc1)C(=O)Cc1ccc(C(F)(F)F)nn1` [compound 38, N-[(2S)-2-hydroxy-2-(3-pyridyl)ethyl]-N-propyl-2-[6-(trifluoromethyl)pyridazin-3-yl]acetamide] is lower in IC50: greater than 1000 nM for the first, 100 to 1000 nM for the second. The second is the more potent here.

First: CCCN(CC(O)c1cccnc1)C(=O)Cc1ccc(Cl)cc1F (centres unmarked) [compound 31, 2-(4-chloro-2-fluoro-phenyl)-N-[2-hydroxy-2-(3-pyridyl)ethyl]-N-propyl-acetamide]
Second: CCCN(CC(O)c1cccnc1)C(=O)Cc1ccc(OC)c(OC)c1 (centres unmarked) [compound 5, 2-(3,4-dimethoxyphenyl)-N-[2-hydroxy-2-(3-pyridyl)ethyl]-N-propyl-acetamide]
The IC50 of the first is lower: no more than 100 nM for the first, greater than 1000 nM for the second.

`CCCN(CC(O)c1cccnn1)C(=O)Cc1ccc(Cl)c(Cl)c1` (centres unmarked) [compound 97] and `CCCN(CC(O)c1cccnn1)C(=O)Cc1ccc(C(F)(F)F)nc1` (single isomer, unassigned) [compound 69, N-[2-hydroxy-2-pyridazin-3-yl-ethyl]-N-propyl-2-[6-(trifluoromethyl)-3-pyridyl]acetamide] cannot be ordered by IC50: no more than 100 nM for the first, no more than 100 nM for the second.

`CC(C)(C)OC(=O)NCCCN(C[C@@H](O)c1cccnc1)C(=O)Cc1ccc(C(F)(F)F)nc1` [compound 140, tert-butyl N-[3-[[(2S)-2-hydroxy-2-(3-pyridyl)ethyl]-[2-[6-(trifluoromethyl)-3-pyridyl]acetyl]amino]propyl]carbamate] and `CC(C)(C)OC(=O)NCCN(C[C@@H](O)c1cccnc1)C(=O)Cc1ccc(C(F)(F)F)nc1` [compound 143, tert-butyl N-[2-[[(2S)-2-hydroxy-2-(3-pyridyl)ethyl]-[2-[6-(trifluoromethyl)-3-pyridyl]acetyl]amino]ethyl]carbamate] cannot be ordered by IC50: no more than 100 nM for the first, no more than 100 nM for the second.

`Cc1ccncc1C(O)CN(CC1COC1)C(=O)Cc1ccc(C(F)(F)F)nc1` (single isomer, unassigned) [compound 88, N-[2-hydroxy-2-(4-methyl-3-pyridyl)ethyl] -N-(oxetan-3-ylmethyl)-2-[6-(trifluoromethyl)-3-pyridyl]acetamide] and `CC(C)c1ccncc1C(O)CN(CC1COC1)C(=O)Cc1ccc(C(F)(F)F)nc1` (centres unmarked) [compound 90, N-[2-hydroxy-2-(4-isopropyl-3-pyridyl)ethyl]-N-(oxetan-3-ylmethyl)-2-[6-(trifluoromethyl)-3-pyridyl]acetamide] cannot be ordered by IC50: no more than 100 nM for the first, no more than 100 nM for the second.

`CCCN(CC(O)c1cnccc1N)C(=O)Cc1ccc(C(F)(F)F)nc1` (centres unmarked) [compound 136, N-[2-(4-amino-3-pyridyl)-2-hydroxyethyl]-N-propyl-2-[6-(trifluoromethyl)-3-pyridyl]acetamide] and `CCCN(CC(O)c1cncc(F)c1)C(=O)Cc1ccc(C(F)(F)F)nc1` (centres unmarked) [compound 112, N-[2-(5-fluoro-3-pyridyl)-2-hydroxyethyl]-N-propyl-2-[6-(trifluoromethyl)-3-pyridyl]acetamide] cannot be ordered by IC50: no more than 100 nM for the first, 100 to 1000 nM for the second.

`CCC(=O)N(CCc1ccc2ccccc2c1)CC(O)c1cccnc1` (centres unmarked) [compound 3] and `CCCN(C[C@H](O)c1cccnc1)C(=O)Cc1ccc2ccccc2c1` [compound 147, N-[(2R)-2-hydroxy-2-(3-pyridyl)ethyl]-2-(2-naphthyl)-N-propyl-acetamide] cannot be ordered by IC50: 100 to 1000 nM for the first, no more than 100 nM for the second.

`CCCN(CC(O)c1cnccn1)C(=O)C1Cc2cc(Cl)c(Cl)cc2C1` (single isomer, unassigned) [compound 41, 5,6-dichloro-N-(2-hydroxy-2-pyrazin-2-yl-ethyl)-N-propyl-indane-2-carboxamide] and `CCCN(C[C@@H](O)c1cccnc1)C(=O)c1nc2cc(Cl)c(Cl)cc2[nH]1` [compound 101, 5,6-dichloro-N-[(2S)-2-hydroxy-2-(3-pyridyl)ethyl]-N-propyl-1 H-benzimidazole-2-carboxamide] cannot be ordered by IC50: greater than 1000 nM for the first, greater than 1000 nM for the second.

First: CCCN(CC(O)c1cncc(C#N)c1)C(=O)Cc1ccc(Cl)c(Cl)c1 (centres unmarked) [compound 111, N-[2-(5-cyano-3-pyridyl)-2-hydroxyethyl]-2-(3,4-dichlorophenyl)-N-propyl-acetamide]
Second: CCCN(CC(O)c1cncc(F)c1)C(=O)Cc1ccc(Cl)c(Cl)c1 (centres unmarked) [compound 126, 2-(3,4-dichlorophenyl)-N-[2-(5-fluoro-3-pyridyl)-2-hydroxyethyl]-N-propyl-acetamide]
The IC50 of the first is higher: greater than 1000 nM for the first, 100 to 1000 nM for the second.

Molecule `CCCN(CC(O)c1cncc(C(C)=O)c1)C(=O)Cc1ccc(C(F)(F)F)nc1` (centres unmarked) [compound 48, N-[2-(5-acetyl-3-pyridyl)-2-hydroxy-ethyl]-N-propyl-2-[6-(trifluoromethyl)-3-pyridyl]acetamide] has an IC50 greater than 1000 nM.
